Data on two molecules can be found in publication PMC3699650, “Structural Insights into the Abscisic Acid Stereospecificity by the ABA Receptors PYR/PYL/RCAR” (PLoS ONE, 2013).

Usually IC50 stands for the point on the concentration scale where inhibition reaches its midpoint.

One assay concerns the target T1, PYL8 (with HAB1) (Arabidopsis thaliana, UniProt Q9FGM1).
T1 construct: PYL8 from E. coli BL21(DE3), pET-28a or pGEX-4T-2 (TEV site), IMAC and SEC; HAB1 residues 169-511, GST cut by TEV; with Protein phosphatase 2C 16
T1 sequence (Q9FGM1 1-188): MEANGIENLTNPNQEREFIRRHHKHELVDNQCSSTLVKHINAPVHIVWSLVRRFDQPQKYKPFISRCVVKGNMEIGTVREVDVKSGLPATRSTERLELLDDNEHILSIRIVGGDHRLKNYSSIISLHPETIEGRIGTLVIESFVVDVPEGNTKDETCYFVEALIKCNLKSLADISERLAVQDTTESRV
T1 sequence (Q9CAJ0 169-511 partner): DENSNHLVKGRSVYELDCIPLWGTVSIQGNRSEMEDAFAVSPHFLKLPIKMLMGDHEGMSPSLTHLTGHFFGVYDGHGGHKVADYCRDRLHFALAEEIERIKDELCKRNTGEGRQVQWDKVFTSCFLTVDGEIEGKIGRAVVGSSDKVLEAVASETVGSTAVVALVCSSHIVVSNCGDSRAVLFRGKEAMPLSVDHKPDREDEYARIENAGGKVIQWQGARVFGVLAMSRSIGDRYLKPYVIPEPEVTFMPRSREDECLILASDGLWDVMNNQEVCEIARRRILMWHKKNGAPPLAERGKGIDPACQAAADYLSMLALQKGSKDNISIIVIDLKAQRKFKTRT
Kind of assay: HAB1 phosphatase inhibition assay (phosphopeptide, molybdate). The format is biochemical.

The target of the next assay is T2, PYL5 (with HAB1) (Arabidopsis thaliana, UniProt Q9FLB1).
T2 construct: PYL5 from E. coli BL21(DE3), pET-28a or pGEX-4T-2 (TEV site), IMAC and SEC, monomer; HAB1 residues 169-511, GST cut by TEV; with Protein phosphatase 2C 16
T2 sequence (Q9FLB1 1-203): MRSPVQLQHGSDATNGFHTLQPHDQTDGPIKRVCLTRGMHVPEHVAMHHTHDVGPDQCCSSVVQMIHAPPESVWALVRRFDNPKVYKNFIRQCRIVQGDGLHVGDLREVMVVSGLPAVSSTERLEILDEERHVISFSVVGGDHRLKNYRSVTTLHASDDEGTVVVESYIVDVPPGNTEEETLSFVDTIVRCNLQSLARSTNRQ
T2 sequence (Q9CAJ0 169-511 partner): T1 sequence (Q9CAJ0 169-511 partner)
Described as above. The format is biochemical.

The next assay deals with T3, PYL10 (with HAB1) (Arabidopsis thaliana, UniProt Q8H1R0).
T3 construct: PYL10 from E. coli BL21(DE3), pET-28a or pGEX-4T-2 (TEV site), IMAC and SEC; HAB1 residues 169-511, GST cut by TEV; with Protein phosphatase 2C 16
T3 sequence (Q8H1R0 1-183): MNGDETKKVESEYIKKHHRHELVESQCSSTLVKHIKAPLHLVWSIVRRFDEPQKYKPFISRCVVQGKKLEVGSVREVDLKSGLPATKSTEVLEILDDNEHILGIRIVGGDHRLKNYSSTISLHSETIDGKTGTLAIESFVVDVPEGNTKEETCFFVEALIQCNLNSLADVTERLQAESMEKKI
T3 sequence (Q9CAJ0 169-511 partner): T1 sequence (Q9CAJ0 169-511 partner)
The description is as above. In kind it is biochemical.

For the next assay, the target named is T4, PYR1 (with HAB1) (Arabidopsis thaliana, UniProt O49686).
T4 construct: PYR1 from E. coli BL21(DE3), pET-28a or pGEX-4T-2 (TEV site), IMAC and SEC; HAB1 residues 169-511, GST cut by TEV; with Protein phosphatase 2C 16
T4 sequence (O49686 1-191): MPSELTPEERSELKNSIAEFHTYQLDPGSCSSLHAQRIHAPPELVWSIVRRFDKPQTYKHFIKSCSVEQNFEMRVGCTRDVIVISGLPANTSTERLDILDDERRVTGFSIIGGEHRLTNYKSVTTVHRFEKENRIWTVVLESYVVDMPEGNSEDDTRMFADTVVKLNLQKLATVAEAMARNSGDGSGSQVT
T4 sequence (Q9CAJ0 169-511 partner): T1 sequence (Q9CAJ0 169-511 partner)
The description is as above. The format is biochemical.

The target in a further assay is T5, PYL6 (with HAB1) (Arabidopsis thaliana, UniProt Q8S8E3).
T5 construct: PYL6 from E. coli BL21(DE3), pET-28a or pGEX-4T-2 (TEV site), IMAC and SEC; HAB1 residues 169-511, GST cut by TEV; with Protein phosphatase 2C 16
T5 sequence (Q8S8E3 1-215): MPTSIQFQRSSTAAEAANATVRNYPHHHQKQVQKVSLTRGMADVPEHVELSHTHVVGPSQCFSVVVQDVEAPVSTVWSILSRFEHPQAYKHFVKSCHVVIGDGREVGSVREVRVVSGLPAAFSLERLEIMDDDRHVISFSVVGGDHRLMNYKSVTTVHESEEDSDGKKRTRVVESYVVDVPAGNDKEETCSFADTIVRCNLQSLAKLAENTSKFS
T5 sequence (Q9CAJ0 169-511 partner): T1 sequence (Q9CAJ0 169-511 partner)
The assay is described as above. In kind it is biochemical.

Assay [1] addresses T6, PYL9 (with HAB1) (Arabidopsis thaliana, UniProt Q84MC7).
T6 construct: PYL9 from E. coli BL21(DE3), pET-28a or pGEX-4T-2 (TEV site), IMAC and SEC, monomer; HAB1 residues 169-511, GST cut by TEV; with Protein phosphatase 2C 16
T6 sequence (Q84MC7 1-187): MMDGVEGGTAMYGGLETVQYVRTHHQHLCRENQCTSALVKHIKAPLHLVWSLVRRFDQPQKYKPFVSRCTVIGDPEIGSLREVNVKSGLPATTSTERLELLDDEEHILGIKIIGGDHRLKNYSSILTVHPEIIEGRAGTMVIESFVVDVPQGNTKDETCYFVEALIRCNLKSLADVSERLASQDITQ
T6 sequence (Q9CAJ0 169-511 partner): T1 sequence (Q9CAJ0 169-511 partner)
Described as above. The format is biochemical.

The target in another assay is T7, PYL4 (with HAB1) (Arabidopsis thaliana, UniProt O80920).
T7 construct: PYL4 from E. coli BL21(DE3), pET-28a or pGEX-4T-2 (TEV site), IMAC and SEC; HAB1 residues 169-511, GST cut by TEV; with Protein phosphatase 2C 16
T7 sequence (O80920 1-207): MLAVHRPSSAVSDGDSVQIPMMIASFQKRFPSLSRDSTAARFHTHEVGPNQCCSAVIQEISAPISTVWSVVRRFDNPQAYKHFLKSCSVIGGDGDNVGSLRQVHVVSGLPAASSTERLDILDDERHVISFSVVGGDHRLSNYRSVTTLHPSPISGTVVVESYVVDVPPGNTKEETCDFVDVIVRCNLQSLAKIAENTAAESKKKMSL
T7 sequence (Q9CAJ0 169-511 partner): T1 sequence (Q9CAJ0 169-511 partner)
The assay is described as above. In kind it is biochemical.

The next assay has as its target T8, PYL3 (Arabidopsis thaliana, UniProt Q9SSM7).
T8 construct: apo mainly dimer
T8 sequence (Q9SSM7 1-209): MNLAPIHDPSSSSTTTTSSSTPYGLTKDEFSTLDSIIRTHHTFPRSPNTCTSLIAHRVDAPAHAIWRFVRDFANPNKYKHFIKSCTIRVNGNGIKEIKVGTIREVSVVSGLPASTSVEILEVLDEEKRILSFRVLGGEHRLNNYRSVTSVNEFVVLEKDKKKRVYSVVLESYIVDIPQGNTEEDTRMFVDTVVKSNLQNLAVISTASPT
As to the kind of experiment: isothermal titration calorimetry. In kind it is binding. To be noted: 20 °C, 20 mM Tris-HCl pH 8.0, 150 mM NaCl; 0.3 mM (−)-ABA into 0.22 mM PYL3. For orientation: In ITC the heat of successive injections is recorded.

In the next assay the target is T9, PYL2 (with HAB1) (Arabidopsis thaliana, UniProt O80992).
T9 construct: PYL2 from E. coli BL21(DE3), pET-28a or pGEX-4T-2 (TEV site), IMAC and SEC; HAB1 residues 169-511, GST cut by TEV; with Protein phosphatase 2C 16
T9 sequence (O80992 1-190): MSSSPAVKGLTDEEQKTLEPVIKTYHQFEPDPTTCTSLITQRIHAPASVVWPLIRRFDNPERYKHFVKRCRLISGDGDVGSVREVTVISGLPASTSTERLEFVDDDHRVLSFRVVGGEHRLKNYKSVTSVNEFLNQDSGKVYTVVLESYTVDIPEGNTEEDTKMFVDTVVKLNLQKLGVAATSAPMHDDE
T9 sequence (Q9CAJ0 169-511 partner): T1 sequence (Q9CAJ0 169-511 partner)
As to the kind of experiment: HAB1 phosphatase inhibition assay (phosphopeptide, molybdate). The format is biochemical.

The target of a further assay is T10, PYL1 (with HAB1) (Arabidopsis thaliana, UniProt Q8VZS8).
T10 construct: PYL1 from E. coli BL21(DE3), pET-28a or pGEX-4T-2 (TEV site), IMAC and SEC; HAB1 residues 169-511, GST cut by TEV; with Protein phosphatase 2C 16
T10 sequence (Q8VZS8 2-221): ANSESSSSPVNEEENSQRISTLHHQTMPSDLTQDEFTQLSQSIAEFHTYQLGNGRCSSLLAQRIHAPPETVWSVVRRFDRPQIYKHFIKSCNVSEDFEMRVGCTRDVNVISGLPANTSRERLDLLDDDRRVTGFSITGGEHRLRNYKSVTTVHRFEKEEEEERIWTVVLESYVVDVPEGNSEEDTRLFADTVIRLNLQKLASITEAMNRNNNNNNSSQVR
T10 sequence (Q9CAJ0 169-511 partner): T1 sequence (Q9CAJ0 169-511 partner)
The description is as above. In kind it is biochemical.

Assay [2] addresses T6, PYL9 (with HAB1). Kind of assay: HAB1 phosphatase inhibition assay. In kind it is biochemical. As to conditions: Hepes pH 7.5, 30 °C.

With `CC1=CC(=O)CC(C)(C)[C@]1(O)/C=C/C(C)=C\C(=O)O` [(−)-ABA], the half-maximal inhibitory concentration (IC50) is 1600 nM against PYL8 (with HAB1); 170 nM against PYL5 (with HAB1); 15000 nM against PYL10 (with HAB1); 4500 nM on PYR1 (with HAB1); 470 nM on PYL6 (with HAB1); above 10000 nM at PYL9 (with HAB1) [1]. In addition, the concentration for half-maximal inhibition (IC50) against PYL4 (with HAB1) stood at 480 nM; on PYL2 (with HAB1), 2500 nM; against PYL1 (with HAB1) it was 3100 nM. For the same molecule, on PYL3, the binding affinity result is on record as “ITC results showed that the binding affinity of (−)-ABA to PYL3 was less”.
Turning to `CC1=CC(=O)CC(C)(C)[C@@]1(O)/C=C/C(C)=C/C(=O)O` [(+)-ABA], at PYL9 (with HAB1) [2], the “HAB1 phosphatase inhibition assay” value is reported as “PYL9 can inhibit HAB1 in the presence of (+)-ABA”.
